In brackets after ≈: the same amount, converted by molar mass. Activity calls are given as the source filed them. The rule behind the calls is not given here. Non-standard residues stand in square brackets, D forms with d. Residues, ends and D or L forms follow the SMILES beside them. *: point of attachment. NH(2-(1-naphthyl)ethyl) = c1ccc2c(CCN*)cccc2c1; NMeF = CN[C@@H](Cc1ccccc1)C(=O)O; NMeL = CN[C@@H](CC(C)C)C(=O)O; NHPhenethyl = c1ccc(CCN*)cc1; NMeV = CN[C@H](C(=O)O)C(C)C; NMeC = CN[C@@H](CS)C(=O)O; NMeA = CN[C@@H](C)C(=O)O
Legend:
[1] = system: Trypanosoma brucei rhodesiense; experiment: Antiprotozoal activity against trypomastigote stage of Trypanosoma brucei rhodesiense STIB900 after 72 hrs by Alamar Blue assay; format: functional, organism-based; details: for IC50: STIB900, 72 h
[2] = system: Staphylococcus aureus; experiment: Antibacterial activity against Staphylococcus aureus ATCC 29213 assessed as growth inhibition up to 128 ug/ml; format: functional, organism-based
[3] = system: Staphylococcus aureus; experiment: Antibacterial activity against methicillin-resistant Staphylococcus aureus ATCC 43300 assessed as growth inhibition up to 128 ug/ml; format: functional, organism-based
[4] = system: Enterococcus faecalis; experiment: Antibacterial activity against Enterococcus faecalis ATCC 29212 assessed as growth inhibition up to 128 ug/ml; format: functional, organism-based
[5] = system: Micrococcus luteus; experiment: Antibacterial activity against Micrococcus luteus ATCC 9341 assessed as growth inhibition up to 128 ug/ml; format: functional, organism-based
[6] = system: Escherichia coli; experiment: Antibacterial activity against Escherichia coli ATCC 25922 assessed as growth inhibition up to 128 ug/ml; format: functional, organism-based
[7] = system: Pseudomonas aeruginosa; experiment: Antibacterial activity against Pseudomonas aeruginosa ATCC 27853 assessed as growth inhibition up to 128 ug/ml; format: functional, organism-based
[8] = system: Plasmodium falciparum; experiment: Antiprotozoal activity against IEF stage of Plasmodium falciparum NF54 after 48 hrs by [3H]-hypoxanthine incorporation assay; format: functional, organism-based
[9] = Passive permeability of the compound at 500 uM after 5 hrs by PAMPA; format: ADME
[10] = Half life in Galleria mellonella hemolymph plasma at 0.5 mM by HPLC-MS method; format: ADME, cell-free

## CCC(C)[C@H]1NC(=O)[C@@H](C(C)C)NC(=O)[C@H]([C@@H](C)O)NC(=O)[C@H](Cc2c[nH]c3ccccc23)NC(=O)[C@@H](NC(C)=O)[C@@H](C)OC(=O)[C@H](CC(C)C)NC1=O (some centres undefined)
[1]
  IC50: 31.6 mg/L (≈ 41.9 µM)

## CN[C@H](C(=O)N(C)[C@H](C(=O)N(C)[C@H](C(=O)N(C)[C@H](C(=O)N(C)[C@H](C(=O)N(C)[C@@H](CC(C)C)C(=O)NCCc1ccccc1)C(C)C)C(C)C)C(C)C)C(C)C)C(C)C (H-[NMeV][NMeV][NMeV][NMeV][NMeV][NMeL]-NHPhenethyl)
[2]
  growth inhibition (GI): inactive
[3]
  growth inhibition (GI): inactive
[4]
  growth inhibition (GI): inactive
[5]
  growth inhibition (GI): inactive
[6]
  growth inhibition (GI): inactive
[7]
  growth inhibition (GI): inactive

## CN[C@H](C(=O)N(C)[C@H](C(=O)N(C)[C@H](C(=O)N(C)[C@H](C(=O)N(C)[C@H](C(=O)N(C)[C@H](C(=O)NCCc1ccccc1)C(C)C)C(C)C)C(C)C)C(C)C)C(C)C)C(C)C (H-[NMeV][NMeV][NMeV][NMeV][NMeV][NMeV]-NHPhenethyl)
[1]
  Activity: Active
[2]
  growth inhibition (GI): inactive
[3]
  growth inhibition (GI): inactive
[4]
  growth inhibition (GI): inactive
[5]
  growth inhibition (GI): inactive
[6]
  growth inhibition (GI): inactive
[7]
  growth inhibition (GI): inactive

## CN[C@@H](CC(C)C)C(=O)N(C)[C@@H](CC(C)C)C(=O)N(C)[C@H](CC(C)C)C(=O)N(C)[C@@H](CC(C)C)C(=O)NCCc1ccccc1
[1]
  IC50: 17.5 mg/L (≈ 27.8 µM)

## CN[C@@H](Cc1ccccc1)C(=O)N[C@H](C(=O)N(C)[C@H](C(=O)N(C)[C@H](C(=O)N(C)[C@H](C(=O)N(C)[C@@H](Cc1ccccc1)C(=O)NCCc1ccccc1)C(C)C)C(C)C)C(C)C)C(C)C (H-[NMeF]V[NMeV][NMeV][NMeV][NMeF]-NHPhenethyl)
[8]
  IC50: 0.14 mg/L (≈ 0.159 µM)

## CN[C@H](C(=O)N(C)[C@H](C(=O)N(C)[C@H](C(=O)N(C)[C@@H](Cc1ccccc1)C(=O)NCCc1ccccc1)C(C)C)C(C)C)C(C)C (H-[NMeV][NMeV][NMeV][NMeF]-NHPhenethyl)
[9]
  permeability: Permeable

## CN[C@@H](CC(C)C)C(=O)N(C)[C@@H](CC(C)C)C(=O)N(C)[C@@H](CC(C)C)C(=O)N(C)[C@@H](CS)C(=O)NCCc1cccc2ccccc12 (H-[NMeL][NMeL][NMeL][NMeC]-{NH(2-(1-naphthyl)ethyl)})
[1]
  IC50: 7.5 mg/L (≈ 11.2 µM)

## CN[C@H](C(=O)N(C)[C@H](C(=O)N(C)[C@H](C(=O)N(C)[C@@H](CS)C(=O)NCCc1ccccc1)C(C)C)C(C)C)C(C)C (H-[NMeV][NMeV][NMeV][NMeC]-NHPhenethyl)
[1]
  IC50: 3 mg/L (≈ 5.19 µM)

## CN[C@@H](CC(C)C)C(=O)N(C)[C@H](CC(C)C)C(=O)N(C)[C@@H](CC(C)C)C(=O)N(C)[C@@H](CC(C)C)C(=O)NCCc1ccccc1
[1]
  IC50: 1.4 to 2.1 mg/L (≈ 2.22 to 3.33 µM)

## CC(C)C[C@@H](N)C(=O)N[C@H](CC(C)C)C(=O)N[C@H](CC(C)C)C(=O)N[C@H](CC(C)C)C(=O)NCCc1ccccc1
[1]
  IC50: 1.4 to 2.1 mg/L (≈ 2.44 to 3.66 µM)

## CN[C@H](C(=O)N(C)[C@H](C(=O)N(C)[C@H](C(=O)N(C)[C@H](C(=O)N(C)[C@H](C(=O)NCCc1ccccc1)C(C)C)C(C)C)C(C)C)C(C)C)C(C)C (H-[NMeV][NMeV][NMeV][NMeV][NMeV]-NHPhenethyl)
[1]
  Activity: Active

## CC(C)C[C@H](NC(=O)[C@@H](NC(=O)[C@@H](NC(=O)[C@@H](N)C(C)C)C(C)C)C(C)C)C(=O)NCCc1ccccc1 (H-VVVL-NHPhenethyl)
[9]
  permeability: Impermeable
[10]
  half-life at 500 µM: 30 min

## CN[C@@H](Cc1ccccc1)C(=O)N(C)[C@H](C(=O)N(C)[C@@H](CC(C)C)C(=O)N(C)[C@H](C(=O)NCCc1ccccc1)C(C)C)C(C)C (H-[NMeF][NMeV][NMeL][NMeV]-NHPhenethyl)
[8]
  IC50: 0.1 mg/L (≈ 0.157 µM)

## CN[C@@H](C)C(=O)N(C)[C@@H](CC(C)C)C(=O)N(C)[C@@H](CC(C)C)C(=O)N(C)[C@@H](CC(C)C)C(=O)NCCc1ccccc1 (H-[NMeA][NMeL][NMeL][NMeL]-NHPhenethyl)
[8]
  IC50: 1.85 mg/L (≈ 3.15 µM)

## CC(C)[C@H](N)C(=O)N[C@H](C(=O)N[C@H](C(=O)N[C@@H](Cc1ccccc1)C(=O)NCCc1ccccc1)C(C)C)C(C)C (H-VVVF-NHPhenethyl)
[9]
  permeability: Impermeable

## CN[C@@H](CC(C)C)C(=O)N(C)[C@@H](CC(C)C)C(=O)N(C)[C@@H](CC(C)C)C(=O)N(C)[C@@H](CC(C)C)C(=O)N(C)[C@@H](CC(C)C)C(=O)N(C)[C@@H](CC(C)C)C(=O)NCCc1ccccc1 (H-[NMeL][NMeL][NMeL][NMeL][NMeL][NMeL]-NHPhenethyl)
[1]
  Activity: Active
[2]
  growth inhibition (GI): inactive
[3]
  growth inhibition (GI): inactive
[4]
  growth inhibition (GI): inactive
[5]
  growth inhibition (GI): inactive
[6]
  growth inhibition (GI): inactive
[7]
  growth inhibition (GI): inactive

From ChEMBL document CHEMBL4177762, “Combined Approach of Backbone Amide Linking and On-Resin N-Methylation for the Synthesis of Bioactive and Metabolically Stable Peptides” (J Med Chem, 2018)
